Structures can show the parent of a compound that is named as a salt.
Legend:
[1] = test system: zebrafish HCs (lateral-line neuromasts); experiment: Cisplatin ototoxicity in zebrafish, neuromast hair cell count
[2] = test system: HEI-OC1 cells; experiment: Caspase-Glo 3/7 assay in cisplatin-treated HEI-OC1 cells; settings: for activity at 13.3 µM / activity at 0.165 µM / activity at 40 µM: Mus musculus, HEI-OC1, 19 h, read-out: caspase activity reached; for caspase activity reached: normalized to cisplatin-only and media-only controls; for IC50: read-out: calculated IC50 (percent protection dose response, caspase 3/7), HEI-OC1 cells, 1 h pretreatment, 19 h co-incubation
Method: Cells were seeded at 8,000 cells/well in 96 well plates and left to attach overnight. […] The cells were co-incubated with cisplatin and drug candidates for an additional 19 hours prior to Caspase-Glo 3/7 assay (Promega, Madison, WI) as previously shown. […] The luminescence detection representing caspase activity in each well was obtained using a Cytation Hybrid Multi-Mode Reader (Biotek, Winooski, VT, USA). The percent protection of the cells was calculated using caspase 3/7 readouts and the following formula:
Caspase activity was measured using Caspase-Glo 3/7 assay and then the results were calculated as percentage of protection as an indicator of cell survival/viability. Percent protection for each compound at the tested dosages were then plotted to show dose response curves, and IC50s were calculated.

[3] = test system: zebrafish hair cells; experiment: Excitotoxic hair cell damage in zebrafish (FIG. 4C); assay type: in vivo; settings: P<0.05, one-way ANOVA
Text: (*P<0.05, one-way ANOVA.)

[4] = test system: cancer patients; settings: cisplatin chemotherapy; cited from earlier work
[5] = test system: patients who received cisplatin chemotherapy; settings: cited from earlier work
[6] = 0.002, 0.018, 0.165, 1.48, 13.3 μM for 1 hour, then co-incubation with 400 μM cisplatin for 4 hours

SMILES | protection against cisplatin ototoxicity (CIHL) in zebrafish [1, 6] | activity at 40 µM [2] | also measured
O=c1[nH]cc(F)c(=O)[nH]1 [5-fluorouracil] | showed protection against CIHL | – | activity at 13.3 µM [2]: ~30%; protection of hair cells from excitotoxic damage [3]: protect hair cells from excitotoxic damage
Sc1ncnc2nc[nH]c12 [6 mercaptopurine] | showed protection against CIHL | – | activity at 0.165 µM [2]: ~70%
N.N.[Cl][Pt][Cl] [Cisplatin] | – | – | permanent hearing loss, share of treated cancer patients [4]: 40-60%
CCCCC1(C2CCCC2)Cc2cc(OCCCC(=O)O)c(Cl)c(Cl)c2C1=O (stereo not drawn) [DCPIB] | showed protection against CIHL | – | caspase activity reached ([2]; dosage ~4.4 μM, cisplatin 50 μM): 0%; IC50 ([2]; cisplatin 50 μM): 3.1 µM
O=C(Nc1ccc([N+](=O)[O-])cc1Cl)c1cc(Cl)ccc1O [Niclosamide] | – | – | cisplatin damage in zebrafish HCs at SO3 and O1-2 neuromasts ([1]; pretreated with 0.002 μM, n=5 to 8 per group): significantly reduced Cisplatin damage; caspase-3/7 activity versus control cells (in words) ([2]; dose 4.4 μM, cisplatin 50 μM, n=3 wells): reduce caspase activity to comparable levels as control cells
O=S([O-])([O-])=S.[Na+].[Na+] [Sodium thiosulfate (STS), Sodium thiosulfate] | – | – | protecting cisplatin-induced hearing loss (CIHL) ([5]; patients with other cancers): ineffective; protecting hearing ([5]; pediatric patients with localized hepatoblastoma who received cisplatin chemotherapy): effective
CC[C@@]1(O)C(=O)OCc2c1cc1n(c2=O)Cc2cc3ccccc3nc2-1 [camptothecin] | showed protection against CIHL | – | activity at 13.3 µM [2]: ~80%
C[C@H](CS)C(=O)N1CCC[C@H]1C(=O)O [captopril] | showed protection against CIHL | – | activity at 0.165 µM [2]: ~85%
CN1C(=O)[C@@]23C[C@]4([C@]56C[C@@]78SS[C@@](CO)(C(=O)N7[C@H]5Nc5ccccc56)N(C)C8=O)c5ccccc5N[C@@H]4N2C(=O)[C@]1(CO)SS3 [chaetocin] | – | – | activity at 13.3 µM [2]: 0%
OCC(S)CS (stereo not drawn) [dimercaptopropanol] | showed protection against CIHL | – | caspase activity reached ([2]; dosage ~40 μM, cisplatin 50 μM): 0%; IC50 ([2]; cisplatin 50 μM): ~15 µM
CO[C@H]1C[C@@H]2CC[C@@H](C)[C@@](O)(O2)C(=O)C(=O)N2CCCC[C@H]2C(=O)O[C@H]([C@H](C)C[C@@H]2CC[C@@H](OCCO)[C@H](OC)C2)CC(=O)[C@H](C)/C=C(\C)[C@@H](O)[C@@H](OC)C(=O)[C@H](C)C[C@H](C)/C=C/C=C/C=C/1C [everolimus] | showed protection against CIHL | – | activity at 13.3 µM [2]: 0%
CC(Nc1nc(N2CCCC2)nc2ccccc12)c1ccccc1 (stereo not drawn) [importazole] | showed protection against CIHL | – | caspase activity reached ([2]; dosage ~40 μM, cisplatin 50 μM): 0%; IC50 ([2]; cisplatin 50 μM): 6.52 µM; protection of hair cells from excitotoxic damage [3]: protect hair cells from excitotoxic damage
CCc1c2c(nc3ccc(OC(=O)N4CCC(N5CCCCC5)CC4)cc13)-c1cc3c(c(=O)n1C2)COC(=O)[C@]3(O)CC [irinotecan] | showed protection against CIHL | – | activity at 13.3 µM [2]: ~60%
CCCC[C@@H](C)/C=C(C)/C=C(\C)C(=O)NC1=C[C@@](O)(/C=C/C=C/C=C/C(=O)NC2=C(O)CCC2=O)[C@@H]2O[C@@H]2C1=O [manumycin A] | showed protection against CIHL | – | caspase activity reached ([2]; dosage ~1.48 μM, cisplatin 50 μM): ~35%; IC50 ([2]; cisplatin 50 μM): 11.7 µM
CC(=O)c1c(C)c2cnc(Nc3ccc(N4CCNCC4)cn3)nc2n(C2CCCC2)c1=O [palbociclib] | – | ~80% | –
C1CCC(C(CC2CCCCN2)C2CCCCC2)CC1 (stereo not drawn) [perhexiline maleate] | showed protection against CIHL | 0% | –
CCCc1cc(C(N)=S)ccn1 [prothionamide] | showed protection against CIHL | ~50% | –
C[C@@H]1C[C@H]2O[C@@H]2/C=C\C=C\C(=O)Cc2c(Cl)c(O)cc(O)c2C(=O)O1 [radicicol] | showed protection against CIHL | – | activity at 13.3 µM [2]: 0%
Cc1nc2ccc(CN(C)c3ccc(C(=O)N[C@@H](CCC(=O)O)C(=O)O)s3)cc2c(=O)[nH]1 [raltitrexed] | showed protection against CIHL | ~20% | –
CC(=O)c1c(O)c(C)c(O)c(Cc2c(O)c3c(c(C(=O)/C=C/c4ccccc4)c2O)OC(C)(C)C=C3)c1O [rottlerin] | showed protection against CIHL | – | activity at 13.3 µM [2]: 0%
CC(C(=O)Nc1cccc(/N=C/c2c(O)ccc3ccccc23)c1)c1ccccc1 (stereo not drawn) [salermide] | showed protection against CIHL | 0% | –
O=C(O)[C@@H](S)[C@@H](S)C(=O)O [succimer] | showed protection against CIHL | ~80% | –
CSc1ccc2c(c1)N(CCC1CCCCN1C)c1ccccc1S2 (stereo not drawn) [thioridazine] | – | 0% | protection against cisplatin ototoxicity (CIHL) in zebrafish ([1]; zebrafish, in vivo): showed protection against CIHL
CC(S)C(=O)NCC(=O)O (stereo not drawn) [tiopronin] | showed protection against CIHL | – | –
COC[C@H]1OC(=O)c2coc3c2[C@@]1(C)C1=C(C3=O)[C@@H]2CCC(=O)[C@@]2(C)C[C@H]1OC(C)=O [wortmannin] | – | ~50% | –
